Where two headings read alike, the source gives them in different places. Marks after values point to notes of the source that are not given here.
Tests used:
[1] = test system: DARPP-32; experiment: DARPP-32 phosphorylation in mouse brain slices, immunoblotting with phosphorylation state-specific antibodies; conditions: for phospho-Thr34 DARPP-32 / phospho-Thr75 DARPP-32: prefrontal cortex slices, n=6; for phospho-Thr34 DARPP-32: 2 min of incubation; for phospho-Thr75 DARPP-32: 10 min of incubation
[2] = pNPP hydrolysis by recombinant PP2C isoforms (phosphatase assay); assay type: biochemical, rat; conditions: for Vmax / kcat / Km: pNPP as substrate; for Km: 37° C.
Experimental: The activity of PP2C isoforms using pNPP as substrate was assayed as previously described (Brumel et al., 1997). […] The reaction was stopped by addition of 1 ml of 0.1 M NaOH, and the initial rate of p-nitrophenol release was determined spectrophotometrically at 405 nm (using a molar extinction coefficient of 18 000 M−1 cm−1).
(§1) Kinetic parameters (Km and Vmax) were determined from Lineweaver-Burk plots.
Legend Table 7. Enzymatic activities of PP2C isoforms assayed using pNPP as substrate. Phosphatase activity was measured using pNPP as substrate by the change in absorbance at 405 nm. Km and Vmax values were calculated from Lineweaver-Burk plots of the data.

[3] = test system: phospho-Ser137-DARPP-32; experiment: Dephosphorylation of phospho-Ser137-DARPP-32 by recombinant PP2C isoforms; assay type: biochemical, rat; conditions: [^32P]phospho-Ser137 DARPP-32 as substrate; in the presence of 10 mM Mn^2+
Experimental: The activity of PP2C isoforms using ^32P-DARPP (phosphorylated at Ser137) was assayed at 37° C. in a reaction mixture containing 25 mM Tris-HCl, pH 7.5, 10 mM MnCl2, 1% BSA, and […] substrate, in a total volume of […]. Reactions were stopped by addition of […] of 50% trichloroacetic acid. Samples were then incubated on ice for 30 min and centrifuged at 10,000 g for 10 min at 4° C. Radioactivity recovered in the supernatant was measured by Cerenkov counting in a scintillation counter (Beckman).
as §1
Legend Table 8. Enzymatic activities of PP2C isoforms assayed using [^32P]phospho-Ser137 DARPP-32 as substrate. Phosphatase activity was measured by the release of ^32P, and Km and Vmax values were calculated from Lineweaver-Burk plots of the data.

[4] = neostriatal slices, compound at 100 μM, 2 min incubation, vehicle control = 100
[5] = neostriatal slices, compound at 100 μM, 10 min incubation, vehicle control = 100
[6] = Mus musculus, 2 min, read-out: Percent Phospho-Thr34
[7] = Mus musculus, 10 min, read-out: Percent Phospho-Thr75
[8] = Mus musculus, 2 min, read-out: Percent Phospho-Ser137
[9] = neostriatal slices, compound at 10 μM, 2 min incubation
[10] = neostriatal slices, compound at 10 μM, 10 min incubation
[11] = neostriatal slices, compound at 300 μM, 2 min incubation

COc1cc(CC(C)N)c(OC)cc1I.Cl (racemic) [DOI, (±)-2,5-dimethoxy-4-iodoamphetamine hydrochloride; (±)-1-(2,5 dimethoxy-4-iodophenyl)-2-aminopropane]
Percent Phospho-Ser137 [1, 4]: 158(8.3)* Percent | Percent Phospho-Thr34 [1, 4]: 144(16.7) Percent | Percent Phospho-Thr75 [1, 5]: 105(4.5) Percent | EC50 ([1]; read-out: EC50 at phospho-Ser137 DARPP-32, neostriatal slices): 18.2 µM

COc1ccc2[nH]cc(CCN)c2c1 [5-MT, 5-methoxytryptamine]
activity at 100 µM [1, 6]: 261 ± 31% | activity at 100 µM [1, 7]: 76 ± 7% | Percent Phospho-Thr34 [1, 4]: 261(31.5)* Percent | Percent Phospho-Thr75 [1, 5]: 76(7.6)* Percent

Clc1cccc(SC2CCNCC2)n1 [Anpirtoline]
activity at 100 µM [1, 8]: 93% | activity at 100 µM [1, 6]: 86% | activity at 100 µM [1, 7]: 102%

NCCNS(=O)(=O)c1ccc(Cl)c2ccncc12 [CK1-7]
Percent Phospho-Ser137 [1, 4]: 87(4.0)* Percent | Percent Phospho-Thr34 [1, 4]: 102(11.5) Percent | Percent Phospho-Thr75 [1, 5]: 96(10.0) Percent

CN1CCN(C2=Nc3cc(Cl)ccc3Nc3ccccc32)CC1 [Clozapine]
activity at 10 µM [1, 8]: 105% | activity at 10 µM [1, 6]: 124% | activity at 10 µM [1, 7]: 101%

CCc1[nH]c2ccc(OC)cc2c1CCN(C)C [EMDT, 2-ethyl-5-methoxy-N,N-dimethyltryptamine]
EC50 ([1]; Mus musculus, 2 min, read-out: EC50 for effect on DARPP-32 phosphorylation at Thr34): 20.5 µM | EC50 ([1]; Mus musculus, 10 min, read-out: EC50 for effect on DARPP-32 phosphorylation at Thr75): 27.4 µM | phospho-Thr34 DARPP-32 [1]: 185±19% | phospho-Thr75 DARPP-32 [1]: 80±17%

O=C(c1ccc(F)cc1)C1CCN(CCn2c(=O)[nH]c3ccccc3c2=O)CC1 [Ketanserin]
activity at 10 µM [1, 8]: 97% | activity at 10 µM [1, 6]: 94% | activity at 10 µM [1, 7]: 105%

c1ccc2sc(N3CCN(Cc4ccc5c(c4)OCO5)CC3)nc2c1 [PPB, 2-[1-(4-Piperonyl)piperazinyl]benzothiazole]
Percent Phospho-Ser137 [1, 4]: 108(2.0) Percent | Percent Phospho-Thr34 [1, 4]: 218(36.1)* Percent | Percent Phospho-Thr75 [1, 5]: 72(8.8)* Percent | phospho-Thr34 DARPP-32 [1]: 203±15% | phospho-Thr75 DARPP-32 [1]: 84±4%

CCN1CCC[C@H]1CNC(=O)c1c(O)c(Cl)cc(Cl)c1OC [Raclopride]
activity at 10 µM [1, 8]: 101% | activity at 10 µM [1, 6]: 150% | activity at 10 µM [1, 7]: 85%

CNc1cc(NS(=O)(=O)c2ccc(N)cc2)nc(NC)n1 [Ro 07-6790]
Percent Phospho-Ser137 [1, 9]: 105(7.3) Percent | Percent Phospho-Thr34 [1, 9]: 90(8.7) Percent | Percent Phospho-Thr75 [1, 10]: 101(12.5) Percent

Nc1ncnc2c1ncn2[C@@H]1O[C@@H]2CO[P@@](O)(=S)O[C@H]2[C@H]1O [RpcAMPs]
Percent Phospho-Ser137 [1, 11]: 108(10.0) Percent | Percent Phospho-Thr34 [1, 11]: 88(13.1) Percent | Percent Phospho-Thr75 ([1]; neostriatal slices, compound at 300 μM, 10 min incubation): 105(7.2) Percent

CN1CCc2cc(Cl)c(O)cc2[C@@H](c2ccccc2)C1 [SCH23390]
activity at 10 µM [1, 6]: 76% | activity at 10 µM [1, 7]: 109%

CCN(CC)CCOC(=O)c1cc(Cl)c(N)cc1OC [SDZ205,557]
Percent Phospho-Ser137 [1, 9]: 102(8.8) Percent | Percent Phospho-Thr34 [1, 9]: 94(16.7) Percent | Percent Phospho-Thr75 [1, 10]: 103(17.5) Percent

C=CCN1CCc2c(cc(O)c(O)c2Cl)C(c2ccccc2)C1 (centres unmarked) [SKF 82958]
activity at 10 µM [1, 8]: 115% | activity at 10 µM [1, 6]: 552% | activity at 10 µM [1, 7]: 65%

NC1CCN(c2cccc(Cl)n2)CC1 [SR 57227]
Percent Phospho-Ser137 [1, 4]: 105(9.6) Percent | Percent Phospho-Thr34 [1, 4]: 78(3.5)* Percent | Percent Phospho-Thr75 [1, 5]: 88(4.8) Percent

NC1=N[C@H](O)[C@H]2[C@H]3O[C@]4(O)O[C@@H]([C@@H](O)[C@@]2(N1)[C@@H]4O)[C@]3(O)CO [Tetrodotoxin]
Percent Phospho-Ser137 [1]: 98(12.5) Percent | Percent Phospho-Thr34 [1]: 91.8(5.8) Percent | Percent Phospho-Thr75 [1]: 103(3.5) Percent

COc1ccc2c(c1)CC[C@@H]1[C@@H]2CC[C@]2(C)[C@@H](NCCCCCCN3C(=O)C=CC3=O)CC[C@@H]12 [U-73122]
Percent Phospho-Ser137 [1, 9]: 86(6.2)* Percent | Percent Phospho-Thr34 [1, 9]: 117(10.9) Percent | Percent Phospho-Thr75 [1, 10]: 90(6.6) Percent

B1: PP2Cb: recombinant his-tagged beta isoform of protein phosphatase 2C cloned from rat striatum (protein, UniProt P35815 2-390, looked up)
Protein phosphatase 1B: GAFLDKPKTEKHNAHGAGNGLRYGLSSMQGWRVEMEDAHTAVVGIPHGLEDWSFFAVYDGHAGSRVANYCSTHLLEHITTNEDFRAADKSGFALEPSVENVKTGIRTGFLKIDEYMRNFSDLRNGMDRSGSTAVGVMISPTHIYFINCGDSRAVLCRNGQVCFSTQDHKPCNPMEKERIQNAGGSVMIQRVNGSLAVSRALGDYDYKCVDGKGPTEQLVSPEPEVYEILRAEEDEFVVLACDGIWDVMSNEELCEFVNSRLEVSDDLENVCNWVVDTCLHKGSRDNMSIVLVCFANAPKVSDEAVKRDLELDKHLESRVEEIMQKSGEEGMPDLAHVMRILSAENIPNLPPGGGLAGKRNVIEAVYSRLNPNKDNDGGAGDLEDSLVAL
modifications: His tag
notes: recombinant his-tagged beta isoform of protein phosphatase 2C cloned from rat striatum
Vmax of pNPP hydrolysis, Mn^2+ compared to Mg^2+ (higher) ([2]; 20 mM Mn^2+ versus 20 mM Mg^2+): approximately 50 fold | Vmax ([2]; in the presence of 20 mM Mg^2+): 0.20 µmol/mg/min | kcat ([2]; in the presence of 20 mM Mg^2+): 0.16 s⁻¹ | Km ([2]; in the presence of 20 mM Mg^2+): 3200 µM | Vmax ([2]; in the presence of 20 mM Mn^2+): 10.72 µmol/mg/min | kcat ([2]; in the presence of 20 mM Mn^2+): 8.42 s⁻¹ | Km ([2]; in the presence of 20 mM Mn^2+): 2290 µM | Km [3]: 25.3 µM | Vmax [3]: 0.99 µmol/mg/min | kcat [3]: 0.78 s⁻¹

Reference: US7320785B2, “Compositions and methods for modulation of DARPP-32 phosphorylation” (The Rockefeller University, priority 2001, dated 2008)
